Data reported in patent publication US12070520B2, “Dermal delivery device” (Agile Therapeutics, Inc., priority 2007, dated 2024).

Experiment: Control of loss of volatile components: amounts in the AI patch after storage (gas chromatography)
Format: physicochemical
Method: A transdermal hormone delivery device was prepared comprising an internal backing layer, an AI layer, and a release liner. […] The device also comprised an overlay comprising a polyurethane spun bonded non-woven backing, which is able to absorb large amounts of the volatile excipients, DMSO and ethyl lactate, an acrylic PSA coated onto the polyurethane foam, and a PIB PSA coated on top of the acrylic PSA. […] The release liner was a Mylar polyester film coated with a fluoropolymer release coating. […] The devices were placed in a 25 C or 40 C oven. After 6 weeks and 12 weeks, devices were removed from the oven and the active section of each device was separated from the overlay. […] (12 weeks exposure to 40 C is intended to simulate 18 months exposure to room temperature (25 C)).

| Amount in the AI patch (6 wks, 40 C.) | Amount in the AI patch (12 wks, 40 C.) | Amount in the AI patch (12 wks, room temp) | SMILES |
| --- | --- | --- | --- |
| 9.02 wt % | 9.20 wt % | 9.10 wt % | CCCCCCCCCCCCOC(=O)C(C)O (stereo not drawn) [Lauryl Lactate, lauryl lactate] |
| 9.02 wt % | 8.98 wt % | 9.08 wt % | C[S+](C)[O-] [DMSO, dimethyl sulfoxide] |
| 1.66 wt % | 1.57 wt % | 1.79 wt % | CCOC(=O)C(C)O (stereo not drawn) [Ethyl Lactate, ethyl lactate] |
